Reference: US20020137929A1, “1 - (3-heterocyclylphenyl) isothiourea, -isourea, -guanidine and -amidine herbicidal agents” (Intellectual Property Department, BASF Aktiengesellschaft, priority 1998, published 2002)

How the values were obtained:
[1] = test system: ABUTH (Velvetleaf); assay: Postemergence herbicidal evaluation; type: in vivo, Abutilon theophrasti; conditions: postemergence
Summary of the method: (§1)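 Visual 0–9 rating versus control (stand, vigor, malformation, size, chlorosis, overall appearance), taken four to five weeks post-spray. Two-week-old seedlings received roughly 0.0156–0.500 kg/ha active in acetone/water (50/50) with 0.5% TWEEN 20 via nozzle at 40 psi.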

[2] = test system: CHEAL (Lambsquarters, Common); assay: Postemergence herbicidal evaluation; type: in vivo, Chenopodium album; conditions: postemergence
Summary of the method: as §1

[3] = test system: SETVI (Foxtail, Green); assay: Postemergence herbicidal evaluation; type: in vivo, Setaria viridis; conditions: postemergence
Summary of the method: as §1

[4] = test system: GLXMAW (Soybean, Williams); assay: Postemergence herbicidal evaluation; type: in vivo, Glycine max, (L.) Merr. cv Williams; conditions: postemergence
Summary of the method: as §1

[5] = test system: ORYSAT (Rice, Tebonnet); assay: Postemergence herbicidal evaluation; type: in vivo, Oryza sativa, (L.) Tebonnet; conditions: postemergence
Summary of the method: as §1

[6] = test system: TRZAWR (Wheat, Winter, cv Riband); assay: Postemergence herbicidal evaluation; type: in vivo, Triticum aestivum; conditions: postemergence
Summary of the method: as §1

[7] = test system: ZEAMX (Corn, Field); assay: Postemergence herbicidal evaluation; type: in vivo, Zea mays; conditions: postemergence
Summary of the method: as §1

[8] = test system: AMBEL (Ragweed, Common); assay: Preemergence herbicidal evaluation; type: in vivo, Ambrosia artemisifolia; conditions: rated 4-5 weeks after treatment; for AMBEL rating: preemergence, 0-9 scale
Summary of the method: (§2)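 Steps: mix seeds into potting soil; plant atop ~1 inch soil; spray compound in aqueous acetone (~0.0156-0.500 kg/ha equivalent); maintain in greenhouse with watering; rate visually 0-9 versus control at 4-5 weeks.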

[9] = test system: GALAP (Galium); assay: Preemergence herbicidal evaluation; type: in vivo, Galium aparine; conditions: rated 4-5 weeks after treatment; for GALAP rating: preemergence, 0-9 scale
Summary of the method: as §2

[10] = test system: SETVI (Foxtail, Green); assay: Preemergence herbicidal evaluation; type: in vivo, Setaria viridis; conditions: rated 4-5 weeks after treatment; for SETVI rating: preemergence, 0-9 scale
Summary of the method: as §2

[11] = test system: CYPIR (Rice Flatsedge); assay: Preemergence weed control under flooded paddy conditions; type: in vivo, Cyperus iria; conditions: rated 3-4 weeks after treatment
Summary of the method: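 First, seeds or propagules go into the top 0.5 cm of silt loam; next, water is held 1.5 to 3 cm over the soil; then compound (50/50 acetone/water) is pipetted into it at about 0.0313 to 0.500 kg/ha; finally plants are rated visually 0-9 after three to four weeks.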

[12] = test system: ECHORC (Watergrass (Calif.)); assay: Postemergence weed control under flooded paddy conditions; type: in vivo, Echinochloa oryzoides; conditions: postemergence weeds
Summary of the method: (§3)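 Herbicidal effect is judged by eye on a 0–9 scale versus control, 3–4 weeks after dosing. Dosing is into flood water kept 1.5–3 cm over the soil, at about 0.0313–0.500 kg/ha in aqueous/acetone 50/50 v/v, on 3–5 cm weeds and 1.5–2.5-leaf rice seedlings.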

[13] = test system: CYPSE (Flatsedge); assay: as above; type: in vivo, Cyperus serotinus; conditions: postemergence weeds, rated 3 to 4 weeks after treatment
Summary of the method: as §3

[14] = test system: SAGPY (Arrowhead (Pygmaea)); assay: as above; type: in vivo, Sagittaria pygmaea; conditions: postemergence weeds, 3-4 weeks after treatment
Summary of the method: as §3

C=CCN1C(=O)C(CC(=O)NS(C)(=O)=O)SC1=Nc1cc(-n2c(=O)cc(C(F)(F)F)n(C)c2=O)c(F)cc1Cl (centres unmarked) [Compound 96, 3-Allyl-2-{{2-chloro-5-[3,6-dihydro-3-methyl-2,6-dioxo-4-(trifluoromethyl)-1(2H)-pryimidinyl]-4-fluorophenyl}imino}-N-(methylsulfonyl)-4-oxo-5-thiazolidineacetamide]
5.0: ZEAMX herbicidal rating ([7]; rate 0.1250 kg/ha) | CYPIR herbicidal effect rating ([11]; 0.0625 kg/ha)
9.0: ABUTH herbicidal rating ([1]; rate 0.0625 kg/ha) | ABUTH herbicidal rating ([1]; rate 0.1250 kg/ha)
1.5: ORYSAT herbicidal rating ([5]; rate 0.0625 kg/ha)
3.0: GLXMAW herbicidal rating ([4]; rate 0.1250 kg/ha) | TRZAWR herbicidal rating ([6]; rate 0.1250 kg/ha) | Herbicidal rating ECHORC ([12]; Rate 0.2500 kg/ha, rated 3 to 4 weeks after treatment)
7.0: ABUTH herbicidal rating ([1]; rate 0.0313 kg/ha) | SETVI herbicidal rating ([3]; rate 0.0625 kg/ha) | GALAP rating ([9]; 0.5000 kg/ha)
2.5: TRZAWR herbicidal rating ([6]; rate 0.0313 kg/ha) | TRZAWR herbicidal rating ([6]; rate 0.0625 kg/ha)
4.5: GLXMAW herbicidal rating ([4]; rate 0.0313 kg/ha) | ZEAMX herbicidal rating ([7]; rate 0.0156 kg/ha) | ZEAMX herbicidal rating ([7]; rate 0.0313 kg/ha) | ZEAMX herbicidal rating ([7]; rate 0.0625 kg/ha)
4.0: SETVI herbicidal rating ([3]; rate 0.1250 kg/ha) | GLXMAW herbicidal rating ([4]; rate 0.0156 kg/ha) | GLXMAW herbicidal rating ([4]; rate 0.0625 kg/ha) | AMBEL rating ([8]; 0.2500 kg/ha) | SETVI rating ([10]; 0.5000 kg/ha)
1.0: ABUTH herbicidal rating ([1]; rate 0.0156 kg/ha) | SETVI herbicidal rating ([3]; rate 0.0313 kg/ha) | AMBEL rating ([8]; 0.1250 kg/ha) | SETVI rating ([10]; 0.0313 kg/ha) | SETVI rating ([10]; 0.0625 kg/ha) | SETVI rating ([10]; 0.2500 kg/ha)
6.0: AMBEL rating ([8]; 0.5000 kg/ha) | GALAP rating ([9]; 0.2500 kg/ha) | CYPIR herbicidal effect rating ([11]; 0.1250 kg/ha) | CYPIR herbicidal effect rating ([11]; 0.2500 kg/ha)
0.0: SETVI herbicidal rating ([3]; rate 0.0156 kg/ha) | AMBEL rating ([8]; 0.0313 kg/ha) | AMBEL rating ([8]; 0.0625 kg/ha) | GALAP rating ([9]; 0.0313 kg/ha) | SETVI rating ([10]; 0.1250 kg/ha) | CYPIR herbicidal effect rating ([11]; 0.0313 kg/ha) | Herbicidal rating ECHORC ([12]; Rate 0.0313 kg/ha, rated 3 to 4 weeks after treatment) | Herbicidal rating ECHORC ([12]; Rate 0.0625 kg/ha, rated 3 to 4 weeks after treatment) | Herbicidal rating ECHORC ([12]; Rate 0.1250 kg/ha, rated 3 to 4 weeks after treatment) | Herbicidal rating CYPSE ([13]; Rate 0.0313 kg/ha) | Herbicidal rating CYPSE ([13]; Rate 0.0625 kg/ha) | Herbicidal rating CYPSE ([13]; Rate 0.1250 kg/ha) | Herbicidal rating CYPSE ([13]; Rate 0.2500 kg/ha)
2.0: CHEAL herbicidal rating ([2]; rate 0.0156 kg/ha) | CHEAL herbicidal rating ([2]; rate 0.0313 kg/ha) | ORYSAT herbicidal rating ([5]; rate 0.0156 kg/ha) | ORYSAT herbicidal rating ([5]; rate 0.0313 kg/ha) | ORYSAT herbicidal rating ([5]; rate 0.1250 kg/ha) | TRZAWR herbicidal rating ([6]; rate 0.0156 kg/ha) | GALAP rating ([9]; 0.0625 kg/ha) | GALAP rating ([9]; 0.1250 kg/ha)

Cn1c(C(F)(F)F)cc(=O)n(-c2cc(N=C3SCC(=O)N3Cc3ccccc3)c(Cl)cc2F)c1=O [Compound 26]
0.0: SETVI herbicidal rating ([3]; rate 0.0156 kg/ha) | SETVI herbicidal rating ([3]; rate 0.0313 kg/ha) | SETVI herbicidal rating ([3]; rate 0.0625 kg/ha) | Preemergence herbicidal rating AMBEL ([8]; rate 0.0156 kg/ha) | Preemergence herbicidal rating AMBEL ([8]; rate 0.0313 kg/ha) | Preemergence herbicidal rating AMBEL ([8]; rate 0.0625 kg/ha) | Preemergence herbicidal rating GALAP ([9]; rate 0.0156 kg/ha) | Preemergence herbicidal rating GALAP ([9]; rate 0.0313 kg/ha) | Preemergence herbicidal rating GALAP ([9]; rate 0.0625 kg/ha) | Preemergence herbicidal rating SETVI ([10]; rate 0.0156 kg/ha) | Preemergence herbicidal rating SETVI ([10]; rate 0.0313 kg/ha) | Preemergence herbicidal rating SETVI ([10]; rate 0.0625 kg/ha) | Herbicidal rating SAGPY ([14]; rate 0.0313 kg/ha)
7.0: Herbicidal rating CYPIR ([11]; 0.1250 kg/ha) | Herbicidal rating ECHORC ([12]; rate 0.0313 kg/ha, 3-4 weeks after treatment) | Herbicidal rating SAGPY ([14]; rate 0.2500 kg/ha)
5.5: GLXMAW herbicidal rating ([4]; rate 0.0156 kg/ha) | GLXMAW herbicidal rating ([4]; rate 0.0313 kg/ha) | ZEAMX herbicidal rating ([7]; rate 0.0625 kg/ha)
1.0: ORYSAT herbicidal rating ([5]; rate 0.0313 kg/ha)
4.0: Herbicidal rating CYPIR ([11]; 0.0625 kg/ha) | Herbicidal rating SAGPY ([14]; rate 0.0625 kg/ha)
6.0: GLXMAW herbicidal rating ([4]; rate 0.0625 kg/ha)
2.5: TRZAWR herbicidal rating ([6]; rate 0.0313 kg/ha)
9.0: ABUTH herbicidal rating ([1]; rate 0.0156 kg/ha) | ABUTH herbicidal rating ([1]; rate 0.0313 kg/ha) | ABUTH herbicidal rating ([1]; rate 0.0625 kg/ha) | CHEAL herbicidal rating ([2]; rate 0.0156 kg/ha) | CHEAL herbicidal rating ([2]; rate 0.0313 kg/ha) | CHEAL herbicidal rating ([2]; rate 0.0625 kg/ha) | Preemergence herbicidal rating GALAP ([9]; rate 0.1250 kg/ha) | Preemergence herbicidal rating GALAP ([9]; rate 0.2500 kg/ha) | Preemergence herbicidal rating SETVI ([10]; rate 0.2500 kg/ha) | Herbicidal rating CYPIR ([11]; 0.2500 kg/ha) | Herbicidal rating ECHORC ([12]; rate 0.0625 kg/ha, 3-4 weeks after treatment) | Herbicidal rating ECHORC ([12]; rate 0.1250 kg/ha, 3-4 weeks after treatment) | Herbicidal rating ECHORC ([12]; rate 0.2500 kg/ha, 3-4 weeks after treatment)
2.0: Herbicidal rating CYPIR ([11]; 0.0313 kg/ha)
4.5: ZEAMX herbicidal rating ([7]; rate 0.0313 kg/ha)
0.5: ORYSAT herbicidal rating ([5]; rate 0.0156 kg/ha)
5.0: Preemergence herbicidal rating AMBEL ([8]; rate 0.1250 kg/ha) | Preemergence herbicidal rating AMBEL ([8]; rate 0.2500 kg/ha) | Preemergence herbicidal rating SETVI ([10]; rate 0.1250 kg/ha) | Herbicidal rating SAGPY ([14]; rate 0.1250 kg/ha)
1.5: ORYSAT herbicidal rating ([5]; rate 0.0625 kg/ha) | TRZAWR herbicidal rating ([6]; rate 0.0156 kg/ha)
3.5: TRZAWR herbicidal rating ([6]; rate 0.0625 kg/ha) | ZEAMX herbicidal rating ([7]; rate 0.0156 kg/ha)
